{"source": "patent US20240252437A1", "about": "“Methods For and Products From Encapsulation of Drugs in Nanoparticles in a Microgravity Environment” (Aphios Corporation, priority 2021, published 2024)", "key": {"α-secretase": {"system": "α-secretase", "assay": "HEK-293e cell model for APP processing: sAPP-α release by alkaline phosphatase absorbance at 620 nm (Earth)", "format": "cell-based, human", "conditions": "for release of sAPP-α (increase in absorbance at 620 nm): HEK-293e cells stimulated for 24 h at 10^−8M, n=3", "description": "The HEK-293e cell line was optimized for studying α-secretase in vitro.\nHEK-293e cells are grown to confluency in T75 dishes in DMEM (Dulbecco's Modified Eagle Medium) and 10% FCS (Fetal Calf Serum) with 2 mM L-glutamine and pen-strepamphotericin. Supplements are needed to maintain plasmid expression: (1) Hygromycin stock solution=100× solution=4 mg/mL, final concentration=40 μg/mL (50 mg/12.5 mL makes 4 mg/mL); (2) Puromycin stock solution=100× solution=30 μg/mL stock, final concentration=0.3 μg/mL. Wait for 24-48 hours. All studies used phenol Red Free DMEM medium with 2% FCS. This must be heated to 65° C. for 30 minutes to inactivate endogenous alkaline phosphatase and cooled prior to making up test solutions.\nFor test solutions, remove 10% FCS growth medium and replace with 1 mL phenol red free DMEM medium+2% FCS per tube (various drug concentrations and control), and freeze cells in cryotubes. Thaw cryotubes and then: (1) Incubate cells at 37° C. for different time points; (2) Centrifuge tube at 1×g for 5 minutes and refreeze tubes to isolate culture supernatants; (3) Thaw tubes and transfer supernatants to new tube: (4) Make up substrate—Phos Blue (KPL Cat #50-88-00) according to manufacturer's instructions; (5) Transfer 100 µL of each sample and add 100 μL of substrate to 96 well plates; (6) Read immediately—record absorbance at 620 nm; and (7) Reacts quickly so record absorbance every 15 minutes for 60 minutes.\nAfter freezing Bryosomes™, HEK-293e cells and cell culture media at −80 °C and thawing after 1, 3, 6 and 16 hours, the samples were analyzed for α-secretase production (FIG. 3). […] Thus, the concentration of 10^−8 M Bryosomes™ after mixing was targeted for the Space mission."}, "PKC-ε": {"target": "T1, PKC-ε (Homo sapiens, UniProt Q02156)", "T1 sequence (Q02156 1-737)": "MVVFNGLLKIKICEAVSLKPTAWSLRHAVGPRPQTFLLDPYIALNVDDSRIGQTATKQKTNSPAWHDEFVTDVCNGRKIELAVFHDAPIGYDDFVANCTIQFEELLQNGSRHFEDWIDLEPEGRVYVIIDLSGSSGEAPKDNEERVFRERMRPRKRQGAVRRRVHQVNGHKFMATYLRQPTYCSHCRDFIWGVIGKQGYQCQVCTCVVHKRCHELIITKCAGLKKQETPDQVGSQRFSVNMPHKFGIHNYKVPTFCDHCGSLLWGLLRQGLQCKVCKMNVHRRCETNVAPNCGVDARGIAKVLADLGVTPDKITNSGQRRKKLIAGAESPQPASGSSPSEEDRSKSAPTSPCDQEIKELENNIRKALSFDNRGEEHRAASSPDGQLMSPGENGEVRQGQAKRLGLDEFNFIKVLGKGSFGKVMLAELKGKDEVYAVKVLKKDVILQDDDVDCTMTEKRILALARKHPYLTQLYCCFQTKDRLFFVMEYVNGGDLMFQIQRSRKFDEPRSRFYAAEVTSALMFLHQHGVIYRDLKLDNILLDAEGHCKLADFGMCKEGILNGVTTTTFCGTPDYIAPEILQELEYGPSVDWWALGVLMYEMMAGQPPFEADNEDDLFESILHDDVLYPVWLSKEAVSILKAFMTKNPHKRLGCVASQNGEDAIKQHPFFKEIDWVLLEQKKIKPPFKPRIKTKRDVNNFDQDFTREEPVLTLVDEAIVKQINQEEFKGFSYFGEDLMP", "conditions": "in vitro studies (Yi et al., 2012); cited from earlier work"}, "AD-transgenic mice": {"system": "AD-transgenic mice", "conditions": "intranasally-active and orally active (Schrott et al., 2015); cited from earlier work"}}}
{"smiles": "CCC/C=C/C=C/C(=O)O[C@H]1/C(=C/C(=O)OC)C[C@H]2C[C@H]([C@@H](C)O)OC(=O)C[C@H](O)C[C@@H]3C[C@H](OC(C)=O)C(C)(C)[C@](O)(C[C@@H]4C/C(=C/C(=O)OC)C[C@H](/C=C/C(C)(C)[C@]1(O)O2)O4)O3", "note": "[Bryostatin-1]", "values": [{"measurement": "release of sAPP-α (increase in absorbance at 620 nm)", "setting": "α-secretase", "value": "significantly increased"}, {"measurement": "release of sAPP-α (increase in absorbance at 620 nm)", "setting": "α-secretase; listed as Bryostatin-I", "value": "strongly induces"}, {"measurement": "release of sAPP-α", "setting": "α-secretase; HEK-293e cells, concentrations lower than 10^−8M", "value": "do not affect release"}, {"measurement": "activation of PKC-ε isoform", "setting": "PKC-ε", "value": "activate"}, {"measurement": "cognitive performance", "setting": "AD-transgenic mice", "value": "rapidly restores cognitive performance"}]}
